The values below come from patent US20050203100A1, “Use of an alfa2-adrenoreceptor antagonist for cns-related diseases” (priority 2002, published 2005).

Assay [1] relates to startle reflex and its prepulse inhibition in rats pretreated with the psychostimulant phencyclidine (PCP). Kind of assay: PCP-induced PPI disruption, startle reflex and prepulse inhibition in rats pretreated with phencyclidine. It is filed as in vivo. The note with it: FIG. 2; for effect on PCP-disrupted prepulse inhibition (PPI): antagonist 20 min and PCP 10 min before measurement, vs vehicle+PCP. The procedure: (§1) In order to study the effect of alpha2-antagonists on startle reflex and its prepulse-inhibition, groups of rats (n=10/group) were pre-treated with the alpha2C-antagonist or vehicle 20 min before measurement of the acoustic startle reactivity and PPI in a test system designed for startle studies (SR-LAB, San Diego Instruments, CA, USA). In a subsequent experiment the effects of the alpha2-adrenoceptor subtype selective alpha2C-antagonist and or the subtype non-selective antagonist atipamezole (Haapalinna, A. et al., Naunyn-Schmiedeberg's Arch. Pharmacol. 356 (1997) 570-582) on PCP-induced PPI-disruption was studied. The antagonists were given 20 min, and PCP or vehicle 10 min before start of the startle measurements. The method otherwise corresponds to the procedure described in Sallinen, J. et al., J. Neurosci. 18 (1998) 3035-42.

For assay [2], the system named is startle reflex and its prepulse inhibition in rats. The assay is described as follows: Acoustic startle reactivity and prepulse inhibition (PPI) in rats. The note with it: compound given 20 min before measurement, vs vehicle, FIG. 1. It is filed as in vivo. The procedure:
as §1

Entries after “also recorded” stand apart in the source; their conditions may differ.

Turning to `CCC1(c2cnc[nH]2)Cc2ccccc2C1` [atipamezole], in assay [1] (PCP experiment), the “effect on startle reactivity per se” value was “increased significantly the startle reactivity per se”. The “effect on PCP-disrupted prepulse inhibition (PPI)” value in assay [1] was “had no effect on the PPI phenomenon”.

`c1ccc(C2(N3CCCCC3)CCCCC2)cc1` [PCP, phencyclidine]: the “effect of PCP on prepulse inhibition (PPI)” value in assay [1] (PCP given 10 min before measurement) is reported as “clearly disrupted the PPI”.

As to `CN1CCN(c2ccc(Nc3c4ccccc4nc4ccccc34)cc2)CC1` [JP-1302, acridin-9-yl-[4-(4-methylpiperazin-1-yl)-phenyl]amine], the “effect on PCP-disrupted prepulse inhibition (PPI)” value in assay [1] is “effectively counteracted; also recorded: especially clearly seen in the presence of PCP”. Moreover, in assay [2], the “effect on prepulse inhibition (PPI, sensorimotor gating)” value was “enhanced sensorimotor gating (prepulse inhibition %); also recorded: increased PPI dose-dependently and effectively”; the “effect on startle reflex (startle reactivity to intense pulses without prepulses)” value is given as “without significantly affecting the startle reactivity; also recorded: did not affect the startle reflex per se”.
